Data: paper PMC7557402, “Evaluation of Nucleoside Analogs as Antimicrobials Targeting Unique Enzymes in Borrelia burgdorferi” (Pathogens, 2020)
pIC50: −log10 of the molar value.

Legend:
[1] = system: Borrelia MTANs (Bgp, MtnN, Pfs); experiment: MTAN activity/kinetics, across the nucleosidases; type: biochemical; conditions: range over the B. burgdorferi nucleosidases
Procedure: Enzyme specific activities were determined using previously reported optimal pH conditions (50 mM sodium phosphate, pH = 7, for Bgp, MtnN; 50 mM sodium phosphate-citrate, pH = 5, for Pfs) and a spectrophotometric activity assay that measures the decrease in UV absorbance at 275 nm that occurs when MTA is cleaved to 5-methylthioribose and adenine (ε275 = 1.6 mM^−1cm^−1). The extinction coefficients for cleavage of other nucleosides were experimentally validated and found to be the same for MSeA, FSBA, and IADO (ε275 = 1.6 mM^−1cm^−1). Due to the added UV absorbance imparted by the 5′ purine group found in PurTA, the enzyme reactions were followed spectrophotometrically at 260 nm using the experimentally determined extinction coefficient of ε260 = 5.6 mM^−1cm^−1. Enzyme specific activities for MTA were generally 1–2 U/mg (1 U = µmol MTA hydrolyzed/min). The enzyme specific activities for other nucleosides were determined and reported in U/mg and as the % max specific activity (relative to MTA at 100%).
Kinetic constants have been previously reported for MTA [18]. As MSeA was also an efficient substrate for the B. burgdorferi nucleosidases, kinetic constants were determined using the activity assay described above, varying the nucleoside concentrations from 1 to 20 µM, and fitting the data on substrate-velocity plots to the Michaelis–Menten equation using GraphPad Prism (version 6):(1) Vo=Vmax[S]/Km+[S]
For the other compounds, inhibition constants (Ki’s) were determined as previously described, using an MTA concentration of 100 µM and varying the inhibitor concentration from 0 to 100 µM. The inhibited velocity (Vo’) and uninhibited velocity (Vo) values were determined, and the ratio of Vo’/Vo plotted as a function of inhibitor concentration. Ki values were calculated from these plots by fitting the data to the equation for competitive inhibition using GraphPad Prism:(2) Vo^′/Vo=Km+[S]/Km+[S]+(Km[I]/Ki)

[2] = system: B. burgdorferi strain N40; experiment: microbe, parasite or virus in culture; type: cell-based, Borrelia burgdorferi; conditions: Borreliella burgdorferi, N40; bioluminescence; stated after the 72 h results, time not given explicitly; read-out: IC50 (loss of B. burgdorferi vitality)
Procedure: B. burgdorferi N40 strain carrying a firefly luciferase gene (Bbluc), which is a derivative of the N40D10/E9 clone, was used in this study and is labeled as N40 throughout. N40 was cultured at 33 °C in Barbour-Stoenner-Kelly-II (BSK-II) medium supplemented with 6% rabbit serum (BSKII-RS). Bacterial counts were determined under 400× magnification using a hemocytometer and a dark field microscope.
The luciferase expressing B. burgdorferi N40 strain was grown to a density of ~10^8 spirochetes/mL and divided into two aliquots. One aliquot was incubated at 60 °C for 30 min to kill the spirochetes. […] The culture was mixed with the substrate by shaking in the dark, incubated at 37 °C for 5 min in a Spectramax M2 microplate reader (Molecular Devices, San Jose, CA, USA) and the bioluminescence measured. […]
Nucleosides and nucleoside analogs were prepared as sterile 1 mM stock solutions in distilled water (MSeA, IADO, FSBA, and dEt-ImmA) or in DMSO (PurTA). […] Photon emission due to luciferase activity was measured at three time points, after: (a) 24 h, (b) 72 h, and (c) 7 days of treatments to observe the effect of inhibitors on B. burgdorferi culture. At the end of each time point, bioluminescence was measured as described above. […]

Nc1ncnc2c1ncn2[C@@H]1O[C@H](CI)[C@@H](O)[C@H]1O [IADO, 5′-deoxy-5′-iodoadenosine]
activity relative to that found for MTA [1]: 3–6%
pIC50 [2]: ~6.00
